This is an account of results in article PMC9655717, “New Molecules of Diterpene Origin with Inhibitory Properties toward α-Glucosidase” (International Journal of Molecular Sciences, 2022).

The target in series [1] is T1, yeast α-GLy (α-glucosidase, Sigma G0660) (Saccharomyces cerevisiae, UniProt P53341).
T1 construct: purchased Sigma G0660
Description: biochemical. The class given is biochemical. As to conditions: IC50 ± SE, α-glucosidase inhibition, yeast α-glucosidase, 37°C, pH 6.8. Here is the method:
S1. Materials and Methods […]
glucosidase inhibition assay. α-Glucosidase enzyme inhibition assay was carried out in a 96-well microplate. The method’s principle based on the hydrolyzed reaction of 4-nitrophenyl-α-D-glucopiranoside with α-glucosidase enzyme into yellow 4- […]
p-Nitrophenyl α-D-Glucoside a- Gl ucosidas e α-D-Glucose + p- Nitrophenol α-Glucosidase inhibitory activity assay was performed following the modified method of Pistia Brueggeman and Hollingsworth with slight modification. Quinopimaric […]
concentrations of 256, 64, 16, 4 and 1 µg/mL. In a 96-well plate, a reaction mixture containing 20 μL of phosphate buffer (100 mM; pH 6.8), 20 μL of α-glucosidase (0.3 U/mL, Sigma G0660) (this concentration was determined by a series of α-glucosidase […]
linearity between the enzyme concentration and the absorbance of yellow color mixture after reaction which was approximately 5-fold higher than the back ground and at least […]
concentrations was pre-incubated for 10 min at 37°C. Then 20 μL of […] p-nitrophenyl α-D-glucopyranoside (Sigma N1377) was added to the mixture as a substrate. After further incubation at 37°C for 30 min, the reaction was stopped by adding 80 μL of 0.1 […]
solution were prepared using the phosphate buffer […]; pH 6.8. […]
as a positive control and water as negative control. The yellow color produced was quantitated by colorimetric analysis and reading the absorbance at 410 nm. Each experiment was performed in triplicates, along with appropriate blanks. The solvent DMSO was use as negative control to evaluate its effect on α-glucosidase activity. […]
or substrate in negative control. Back ground was determined by volume of buffer as […]
The % inhibition has been obtained using the formula:
% inhibition = {Absorbance (control) –Absorbance (sample)}/Absorbance (control) IC50 value is defined as the concentration of samples inhibiting 50% of α-glucosidase activity under the stated assay conditions. […]

Series [2] in a line: DPPH radical scavenging assay. The note with it: DPPH 0.1 mM in methanol, 25°C, 30 min. Here is the method: DPPH radical scavenging assay as described by Ha. The hydrogen atom donating ability of the plant extractives was determined by the decolorization of methanol solution of 2,2-diphenyl-1-picrylhydrazyl (DPPH). DPPH produces purple color in methanol solution and fades to shades of yellow color in the presence of antioxidants. […]
DPPH (0.1 mM) was diluted in methanol. 200 μL of this solution was added to 1.3 μL of various concentrations of compounds in DMSO (256.0, 64.0, 16.0, and 4.0 μg/mL). The mixture was performed by a 96-well plate at 25 °C in 30 min. Then, absorbance was determined by Epoch™ Microplate Spectrophotometer (at 517 nm). The percentage of DPPH quenching activity was computed by the following formula:
Inhibitory percentage SC (%) = [(Ao - A1)/Ao] × 100. where AO was defined as the absorbance of control reaction, and A1 represented for the absorbance in the presence of test or standard sample. Each experiment was repeated three times. Quercetin was used as a reference compound. […]
(In general: DPPH is a stable violet radical that fades when it is reduced.)

For series [3], the system named is Bacillus subtilis (ATCC 6633). Briefly: Antimicrobial broth microdilution. Type of series: cell-based. As to conditions: ATCC6633, B. subtilis. Here is the method: (§1) Table S2. The result of antimicrobial tests of compounds 38, 45, 48 and 50.
(§2) Gram (+) strains Gram (-) strains Fungi
(§3) Compound Values (µg/ml) S. aureus B. L. S. E. P. C. subtilis fermentum enterica coli aeruginosa albican
(§4) The antimicrobial activity was determined by broth microdilution method as reported by. Broth dilution testing is one of the common methods used for determination of the MICs and IC50. The compounds are examined for visible bacterial growth as evidenced by turbidity. […]
(§5) S1.5. In vitro antimicrobial activity study of compounds 38, 45, 48 and 50 The Gram-positive bacteria: Bacillus subtilis (ATCC 6633), Lactobacillus fermentum (N4), Staphylococcus aureus (ATCC 13709); Gram -negative bacteria: Escherichia coli (ATCC 25922), Pseudomonas aeruginosa (ATCC 15442), Salmonella enterica; Yeast: Candida albicans (ATCC 10231) were obtained from American Type Culture Collection. The bacterial […]
(§6) Sabourand 2% dextrose broth, were purchased from Merck. […]
(§7) remaining at –80 0 C. Before assay, they were activated by culture medium and, adjusted the concentration to 5x10^5 CFU/mL. 10 μL of each concentration of each test […]
(§8) further incubated at 37 °C within 16-24h. The experiment was triplicated. Positive […]
(§9) medium without bacteria as a negative control. Ampicillin was used as a reference […]
(§10) inhibiting 50% the visible growth of the tested microorganisms. MIC, IC50 values are typically expressed as molar concentration. […]
(§11) treated with sample different concentrations on 96-well plates. Untreated cells represented the controls. […]
(§12) crystals are visible. Remove MTT and add DMSO solution (100 μL). The optical density […]
(§13) are evaluated to have cytotoxic activity.
(In general: Broth dilution looks for growth in wells or tubes with falling amounts of substance.)

Series [4] has as its system Candida albicans (ATCC 10231). Briefly: Antimicrobial broth microdilution. The class given is cell-based. As to conditions: ATCC10231, C. albican. The protocol:
as §1, §2, §3, §4, §5, §6, §7, §8, §9, §10, §11, §12, §13

Series [5] concerns Escherichia coli (ATCC 25922). Description: Antimicrobial broth microdilution. Type of series: cell-based. As to conditions: ATCC25922, E. coli. Here is the method: as §1, §2, §3, §4, §5, §6, §7, §8, §9, §10, §11, §12, §13
Series [6] relates to Lactobacillus fermentum (N4). Description: Antimicrobial broth microdilution. Type of series: cell-based. The note with it: L. fermentum. Here is the method: as §1, §2, §3, §4, §5, §6, §7, §8, §9, §10, §11, §12, §13
Series [7] relates to Pseudomonas aeruginosa (ATCC 15442). Description: Antimicrobial broth microdilution. The class given is cell-based. As to conditions: ATCC15442, P. aeruginosa. The protocol: as §1, §2, §3, §4, §5, §6, §7, §8, §9, §10, §11, §12, §13
A further series has as its system Salmonella enterica. Briefly: Antimicrobial broth microdilution. The class given is cell-based. As to conditions: S. enterica. Here is the method: as §1, §2, §3, §4, §5, §6, §7, §8, §9, §10, §11, §12, §13
The test system of series [8] is Staphylococcus aureus (ATCC 13709). Description: Antimicrobial broth microdilution. Type of series: cell-based. The note with it: ATCC13709, S. aureus. Here is the method:
as §1, §2, §3, §4, §5, §6, §7, §8, §9, §10, §11, §12, §13

The next series can be described thus: MTT cytotoxicity assay. The note with it: human. The protocol: The cytotoxic activity of compounds was evaluated against four cancer cell lines KB, Hep-G2, Lu-1 and MCF-7, using colorimetric MTT assay. […]
MTT assay was used to determine the cytotoxic activity of compounds with human cancer cell lines acquired from the American Type Culture Collection (ATCC): epidermoid carcinoma (KB, ATCC number CCL-17), hepatocellular carcinoma (HepG2, ATCC number HB-8065), lung adenocarcinoma LU-1 (ATCC number HTB - 57TM), breast adenocarcinoma MCF-7 (ATCC number HTB - 22TM. Cells were cultured in medium DMEM supplemented with 10% Fetal bovine serum (FBS), 1% Penicillin and Streptomycin and 1% L-glutamine, under a humidified atmosphere of 5% CO2 at 37°C.
Compounds were dissolved in DMSO at 40 mg/mL and a series of dilutions for each compound was prepared to final concentrations of 256, 64, 16, 4 and 1 μg/mL. Cells were separated with trypsin and seeded in each well with 3 x10^4 cells per ml and were treated with sample different concentrations on 96-well plates. Untreated cells represented the controls. After 72h of treatment, an MTT solution (10 μl, 5 mg/mL) of phosphate buffer was added to each well for 4 h until intracellular purple formazan crystals are visible. Remove MTT and add DMSO solution (100 μL). The optical density of the solution was determined by Epoch™ Microplate Spectrophotometer at 540 nm. The inhibition ratio was calculated based on the optical densities from the three replicate […]
as §13

Setting [9] is: Hep-G2 hepatocellular carcinoma cells (ATCC HB-8065).
The mark [10] stands for this setting: KB epidermoid carcinoma cells (ATCC CCL-17).
[11] abbreviates: Lu-1 lung adenocarcinoma cells (ATCC HTB-57).
[12] abbreviates: MCF-7 breast adenocarcinoma cells (ATCC HTB-22).

Values after ≈ are worked out from the molar mass of the structure shown.

T1 sequence (P53341 whole entry): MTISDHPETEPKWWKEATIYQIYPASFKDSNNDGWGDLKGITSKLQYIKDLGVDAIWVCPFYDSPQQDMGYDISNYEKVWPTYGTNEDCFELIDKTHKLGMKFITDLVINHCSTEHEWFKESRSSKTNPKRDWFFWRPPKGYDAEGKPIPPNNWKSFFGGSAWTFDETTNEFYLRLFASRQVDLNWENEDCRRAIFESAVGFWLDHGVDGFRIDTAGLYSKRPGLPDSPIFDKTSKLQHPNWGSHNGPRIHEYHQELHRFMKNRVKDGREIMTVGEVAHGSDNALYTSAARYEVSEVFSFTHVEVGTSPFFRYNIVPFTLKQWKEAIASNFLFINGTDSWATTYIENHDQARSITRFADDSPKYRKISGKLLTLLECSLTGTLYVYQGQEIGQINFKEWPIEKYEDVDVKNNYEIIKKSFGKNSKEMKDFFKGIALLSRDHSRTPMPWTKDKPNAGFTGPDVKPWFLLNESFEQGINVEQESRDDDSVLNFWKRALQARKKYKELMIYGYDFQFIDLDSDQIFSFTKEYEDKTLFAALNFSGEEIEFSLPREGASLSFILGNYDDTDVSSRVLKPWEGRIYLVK

As usually defined, the IC50 is the concentration needed to halve the response being measured. Low readings indicate inhibition by little substance, high ones a need for much substance. The term MIC denotes the lowest concentration found to suppress growth. Usually melting point stands for the temperature, or range, at which the solid turns liquid. As for `CC(C)C1=CC23CCC4C(C)(C(=O)O)CCCC4(C)C2CC1c1c(OCCC#N)ccc(OCCC#N)c13` (stereo not drawn) [Compound 50, 1,4-Bis(2′-cyanoethoxy)-13-isopropyl-7,10a-dimethyl-6,6a,7,8,9,10,10a,10b,11,12-decahydro-5H-4b,12-ethenochrysene-7-carboxylic acid], the melting point fell in the range of 157 to 159 °C. Further, the IC50 in [1] was determined as 230 ± 10 nM. Also, the “IC50 values, antioxidant test (DPPH)” value in series [2] was determined as 105.50 ± 2.2 µg/mL (≈ 204 µM). In series [3], the IC50 stood at 11.3 ± 0.77 µg/mL (≈ 21.8 µM) and the MIC was found to be 64 µg/mL (≈ 124 µM). In series [4], the IC50 is greater than 256 µg/mL and the MIC was greater than 256 µg/mL. In series [5], this compound displayed an IC50 greater than 256 µg/mL and an MIC greater than 256 µg/mL. In series [6], this compound had an IC50 of 116 ± 6.93 µg/mL (≈ 224 µM) and an MIC greater than 256 µg/mL. In series [7], this compound registered an IC50 greater than 256 µg/mL and an MIC greater than 256 µg/mL. In the series with Salmonella enterica, this compound came in with an IC50 greater than 256 µg/mL and a minimum inhibitory concentration (MIC) greater than 256 µg/mL. In series [8], this compound yielded an IC50 of 11 ± 0.83 µg/mL (≈ 21.3 µM) and a minimum inhibitory concentration (MIC) of 64 µg/mL (≈ 124 µM). Also, the half-maximal inhibitory concentration (IC50) at 72 h in the series “MTT cytotoxicity assay” (setting [9]) came out at 110 ± 2.6 µg/mL (≈ 213 µM). Further, the IC50 at 72 h in “MTT cytotoxicity assay” (setting [10]) came to 57.3 ± 1.2 µg/mL (≈ 111 µM). Also, in the series “MTT cytotoxicity assay” (setting [11]), half-maximal inhibition (IC50 at 72 h) was put at 69.8 ± 1.5 µg/mL (≈ 135 µM). Besides, the IC50 at 72 h in the series “MTT cytotoxicity assay” (setting [12]) amounted to 158 ± 4 µg/mL (≈ 305 µM).
Consider `C#CCOC(=O)C1(C)CCCC2(C)C1CCC13C=C(C(C)C)C(CC12)C1=C3C(=O)C=CC1=O` (stereo not drawn) [Compound 48, Propynyl 13-isopropyl-7,10a-dimethyl-1,4-di oxo-4,5,6,6a,7,8,9,10,10a,10b,11,12-dodecahydro-1H-4b,12-ethenochrysene-7-carboxylate], for which the melting point is 85 to 89 °C. Moreover, half-maximal inhibition in series [1] (IC50) required 680 ± 45 nM. Further, the “IC50 values, antioxidant test (DPPH)” value in series [2] was 177.45 ± 3.5 µg/mL (≈ 397 µM). Moreover, in series [3], it took 45 ± 2.18 µg/mL (≈ 101 µM) to reach half-maximal inhibition (IC50) and inhibition of growth (MIC) required 256 µg/mL (≈ 573 µM). In series [4], this compound yielded an IC50 greater than 256 µg/mL and an MIC greater than 256 µg/mL. Also, in series [5], the IC50 was greater than 256 µg/mL and the MIC was greater than 256 µg/mL. In [6], this compound gave an IC50 of 43.5 ± 2.52 µg/mL (≈ 97.5 µM) and an MIC of 256 µg/mL (≈ 573 µM). Further, in series [7], the IC50 was greater than 256 µg/mL and the MIC is greater than 256 µg/mL. In the series on Salmonella enterica, this compound registered an IC50 greater than 256 µg/mL and an MIC greater than 256 µg/mL. In [8], this compound had an IC50 of 8.29 ± 0.58 µg/mL (≈ 18.6 µM) and an MIC of 64 µg/mL (≈ 143 µM). In the series “MTT cytotoxicity assay” (setting [9]), this compound returned an IC50 at 72 h of 46 ± 0.8 µg/mL (≈ 103 µM). The compound further displayed an IC50 at 72 h in “MTT cytotoxicity assay” (setting [10]) of 30.5 ± 0.7 µg/mL (≈ 68.3 µM). This compound came in with an IC50 at 72 h in the series “MTT cytotoxicity assay” (setting [11]) of 10.2 ± 0.18 µg/mL (≈ 22.7 µM). Half-maximal inhibition in “MTT cytotoxicity assay” (setting [12]) (IC50 at 72 h) was put at 39.2 ± 0.78 µg/mL (≈ 87.9 µM).
